Measured values: ChEMBL document CHEMBL5247637, “Rational design, synthesis and biological evaluation of novel 2-(substituted amino)-[1,2,4]triazolo[1,5-a]pyrimidines as novel tubulin polymerization inhibitors” (Eur J Med Chem, 2022)

How the values were obtained:
Tubulin (Homo sapiens) = Tubulin (Homo sapiens) (UniProt P68371+Q9H4B7+P0DPH7+P68366+Q13509+Q71U36+P04350+Q3ZCM7+P07437+P68363+Q9BQE3+Q6PEY2+Q13885+Q9BVA1+Q9BUF5); experiment: Inhibition of tubulin polymerization (unknown origin) at 10 uM incubated for 0.5 hrs in presence of GTP by spectrophotometer analysis relative to control; format: protein-complex assay
A549 = experiment: Antiproliferative activity against human A549 cells assessed as inhibition of cell growth measured after 48 hrs by MTT assay; format: functional, cell-based; conditions: A549, 48 h
T47D = experiment: Antiproliferative activity against human T47D cells assessed as inhibition of cell growth measured after 48 hrs by MTT assay; format: functional, cell-based
Tubulin = experiment: Inhibition of tubulin polymerization (unknown origin) incubated for 0.5 hrs in presence of GTP by spectrophotometer analysis; format: protein-complex assay, Homo sapiens

SMILES | inhibition (Tubulin (Homo sapiens)) [%] | IC50 (A549) [nM] | IC50 (T47D) [nM] | IC50 (Tubulin) [nM]
COc1ccc(Nc2nc3nccc(-c4cc(OC)c(OC)c(OC)c4)n3n2)cc1N | 78 |  |  | 
COc1ccc(/C=C\c2cc(OC)c(OC)c(OC)c2)cc1O [COMBRETASTATIN A4] |  | 27 | 21 | 
COc1ccc(Nc2nc3nccc(-c4cc(OC)c(OC)c(OC)c4)n3n2)cc1O | 43 |  |  | 4900
COc1ccc(C2C(C(C)=O)=C(C)N=C3N=C(c4cc(OC)c(OC)c(OC)c4)NN32)cc1[N+](=O)[O-] (configuration not stated) | 56 |  |  | 9900
